In patent US12491251B2, “Degraders of cyclin-dependent kinase 7 (CDK7) and uses thereof” (DANA-FARBER CANCER INSTITUTE, INC., priority 2019, dated 2025):

biological target: T1, CDK7 (Homo sapiens, UniProt P50613); assay: CDK7 degradation in Jurkat cells by immunoblot; type: cell-based; conditions: 1 μM compound, 6 hours, vs DMSO
T1 construct: endogenous in cells; host or cells: Jurkat cells
Experimental: Jurkat cells were treated with DMSO or 1 μM of compounds 1-26 for 6 hours. Cells were then lysed in radioimmunoprecipitation assay (RIPA) buffer (Sigma® Life Science) containing protease/phosphatase inhibitor cocktail (Roche). The protein concentrations were measured by bicinchoninic acid assay (BCA) analysis (Pierce™). Equal amounts of protein were resolved by 4-12% Tris-Base gels (Invitrogen™), and then transferred to the immunoblot polyvinylidene difluoride (PVDF) membrane (BioRad), and immunoblotted with primary antibodies against CDK7 (cell signaling) and glyceraldehyde 3-phosphate dehydrogenase (GAPDH) (Cell Signaling Technology®), and then immunoblotted with IRDye®800-labeled goat anti-rabbit immunoglobulin G (IgG) and IRDye®680-labeled goat anti-mouse IgG (LI-COR®) secondary antibodies. The membranes were detected on an Odyssey® CLx system.

T1 sequence (P50613 2-346 limits assumed): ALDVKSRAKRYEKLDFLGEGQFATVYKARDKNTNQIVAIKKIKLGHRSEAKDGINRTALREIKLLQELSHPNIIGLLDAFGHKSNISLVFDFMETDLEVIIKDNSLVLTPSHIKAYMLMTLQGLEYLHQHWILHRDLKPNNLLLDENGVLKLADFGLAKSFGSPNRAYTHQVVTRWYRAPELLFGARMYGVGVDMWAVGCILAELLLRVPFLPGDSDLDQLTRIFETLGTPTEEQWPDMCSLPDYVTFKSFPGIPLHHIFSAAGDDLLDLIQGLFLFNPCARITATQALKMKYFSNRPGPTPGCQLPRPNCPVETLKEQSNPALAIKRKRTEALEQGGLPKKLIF
T1 sequence (P51946 whole entry partner): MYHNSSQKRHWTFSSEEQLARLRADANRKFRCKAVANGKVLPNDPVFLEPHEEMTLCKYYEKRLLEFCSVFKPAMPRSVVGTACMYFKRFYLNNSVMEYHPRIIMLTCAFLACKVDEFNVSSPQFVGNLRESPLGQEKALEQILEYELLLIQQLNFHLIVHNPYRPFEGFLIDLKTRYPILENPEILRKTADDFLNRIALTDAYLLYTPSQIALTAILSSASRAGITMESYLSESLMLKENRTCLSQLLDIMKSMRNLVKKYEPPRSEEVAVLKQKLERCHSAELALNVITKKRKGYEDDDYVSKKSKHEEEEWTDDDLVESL
T1 sequence (P51948 whole entry partner): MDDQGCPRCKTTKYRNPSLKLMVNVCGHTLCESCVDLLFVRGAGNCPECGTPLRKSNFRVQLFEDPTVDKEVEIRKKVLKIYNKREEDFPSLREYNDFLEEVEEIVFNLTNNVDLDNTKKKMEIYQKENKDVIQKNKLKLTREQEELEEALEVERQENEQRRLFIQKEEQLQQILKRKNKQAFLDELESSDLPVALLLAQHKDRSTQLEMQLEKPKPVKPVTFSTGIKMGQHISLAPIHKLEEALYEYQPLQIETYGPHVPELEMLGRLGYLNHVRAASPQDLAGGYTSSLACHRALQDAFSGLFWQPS

Degradation of CDK7 (immunoblot), induced the degradation of CDK7:
CN(C)C[C@@H](NC(=O)N1Cc2c(NC(=O)c3ccc(NC(=O)CCCNc4cccc5c4C(=O)N(C4CCC(=O)NC4=O)C5=O)cc3)n[nH]c2C1(C)C)c1ccccc1 (stereo partly drawn) [Compound 16, N—((S)-2-(dimethylamino)-1-phenylethyl)-3-(4-(4-((2-(2,6-dioxopiperidin-3-yl)-1,3-dioxoisoindolin-4-yl)amino)butanamido)benzamido)-6,6-dimethyl-4,6-dihydropyrrolo[3,4-c]pyrazole-5(1H)-carboxamide]
Cc1ncsc1-c1ccc([C@H](C)NC(=O)[C@@H]2C[C@@H](O)CN2C(=O)[C@@H](NC(=O)CCCCCCNC(=O)c2ccc(C(=O)Nc3n[nH]c4c3CN(C(=O)N[C@H](CN(C)C)c3ccccc3)C4(C)C)cc2)C(C)(C)C)cc1 [Compound 22, N^1-(5-(((S)-2-(dimethylamino)-1-phenylethyl)carbamoyl)-6,6-dimethyl-1,4,5,6-tetrahydropyrrolo[3,4-c]pyrazol-3-yl)-N^4-(7-(((S)-1-((2S,4R)-4-hydroxy-2-(((S)-1-(4-(4-methylthiazol-5-yl)phenyl)ethyl)carbamoyl)pyrrolidin-1-yl)-3,3-dimethyl-1-oxobutan-2-yl)amino)-7-oxoheptyl)terephthalamide]
CN(C)C[C@@H](NC(=O)N1Cc2c(NC(=O)c3ccc(C(=O)NCCCCCOc4cccc5c4C(=O)N(C4CCC(=O)NC4=O)C5=O)cc3)n[nH]c2C1(C)C)c1ccccc1 (stereo partly drawn) [Compound 8, N^1-(5-(((S)-2-(dimethylamino)-1-phenylethyl)carbamoyl)-6,6-dimethyl-1,4,5,6-tetrahydropyrrolo[3,4-c]pyrazol-3-yl)-N^4-(5-((2-(2,6-dioxopiperidin-3-yl)-1,3-dioxoisoindolin-4-yl)oxy)pentyl)terephthalamide]
Cc1ncsc1-c1ccc([C@H](C)NC(=O)[C@@H]2C[C@@H](O)CN2C(=O)[C@@H](NC(=O)CCOCCNC(=O)c2ccc(C(=O)Nc3n[nH]c4c3CN(C(=O)N[C@H](CN(C)C)c3ccccc3)C4(C)C)cc2)C(C)(C)C)cc1 [Compound 15, N^1-(5-(((S)-2-(dimethylamino)-1-phenylethyl)carbamoyl)-6,6-dimethyl-1,4,5,6-tetrahydropyrrolo[3,4-c]pyrazol-3-yl)-N^4-(2-(3-(((S)-1-((2S,4R)-4-hydroxy-2-(((S)-1-(4-(4-methylthiazol-5-yl)phenyl)ethyl)carbamoyl)pyrrolidin-1-yl)-3,3-dimethyl-1-oxobutan-2-yl)amino)-3-oxopropoxy)ethyl)terephthalamide]
CN(C)C[C@@H](NC(=O)N1Cc2c(NC(=O)c3ccc(C(=O)NCCCCCCc4cccc5c4C(=O)N(C4CCC(=O)NC4=O)C5=O)cc3)n[nH]c2C1(C)C)c1ccccc1 (stereo partly drawn) [Compound 13, N^1-(5-(((S)-2-(dimethylamino)-1-phenylethyl)carbamoyl)-6,6-dimethyl-1,4,5,6-tetrahydropyrrolo[3,4-c]pyrazol-3-yl)-N^4-(6-(2-(2,6-dioxopiperidin-3-yl)-1,3-dioxoisoindolin-4-yl)hexyl)terephthalamide]
Cc1ncsc1-c1ccc([C@H](C)NC(=O)[C@@H]2C[C@@H](O)CN2C(=O)[C@@H](NC(=O)CCOCCOCCNC(=O)c2ccc(C(=O)Nc3n[nH]c4c3CN(C(=O)N[C@H](CN(C)C)c3ccccc3)C4(C)C)cc2)C(C)(C)C)cc1 [Compound 6]
